Read-outs that look alike come from different tables or passages of the source.
Target: T1, recombinant ENOX2 (tNOX) (Homo sapiens, UniProt Q16206)
T1 sequence (Q16206 1-610): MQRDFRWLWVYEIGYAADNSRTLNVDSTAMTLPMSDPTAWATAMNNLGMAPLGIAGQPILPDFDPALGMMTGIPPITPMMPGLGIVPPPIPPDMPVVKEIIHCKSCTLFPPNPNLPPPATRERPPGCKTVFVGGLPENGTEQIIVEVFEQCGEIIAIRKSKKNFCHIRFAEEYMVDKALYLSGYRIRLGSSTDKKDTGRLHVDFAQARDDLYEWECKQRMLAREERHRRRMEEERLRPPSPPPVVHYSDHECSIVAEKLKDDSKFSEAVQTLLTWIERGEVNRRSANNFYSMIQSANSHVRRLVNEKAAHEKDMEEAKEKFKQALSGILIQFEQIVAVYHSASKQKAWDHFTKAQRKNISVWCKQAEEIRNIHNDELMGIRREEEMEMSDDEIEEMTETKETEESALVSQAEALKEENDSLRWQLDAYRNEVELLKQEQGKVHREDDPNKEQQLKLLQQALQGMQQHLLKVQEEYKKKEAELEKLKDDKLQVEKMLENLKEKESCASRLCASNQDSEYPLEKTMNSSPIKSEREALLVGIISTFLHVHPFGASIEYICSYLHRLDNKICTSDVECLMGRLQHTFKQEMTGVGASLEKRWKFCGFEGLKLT
Experiment: NADH oxidation, A340
Type: biochemical

Molecule | EC50 (150 µM NADH, 25 mM Tris-MES pH 7.2, 100 µM GSH, 1 mM KCN, 37 °C, inhibition) [nM] | EC50 [nM]
2H-1-benzopyran-7-0,1,3-(4-hydroxyphenyl) [ME-143] | ~50 | 
Oc1ccc(C2=Cc3ccc(O)cc3OC2)cc1 [phenoxodiol] |  | 330 ± 153

Reference: article PMC7592813 (Oncology Research, 2014)
